From ChEMBL document CHEMBL3045993, “Expedient synthesis of some novel pregnane derivatives and their evaluation as anti-oxidant and anti-dyslipidemic agents” (2011)

How the values were obtained:
Assay type in all cases: functional
[1] = test system: Liver microsome; test: Antioxidant activity in Rattus norvegicus (rat) liver microsomes assessed as inhibition of lipid peroxidation at 100 ug/ml after 90 min by thiobarbuteric acid method
[2] = test system: Rattus norvegicus; test: Antidyslipidemic activity in Rattus norvegicus Charles Foster (rat) assessed as activation of post heparin lipolytic activity at 400 mg/kg, po after 18 hr relative to control
[3] = test system: Rattus norvegicus; test: Antidyslipidemic activity in high fat diet fed Rattus norvegicus Charles Foster (rat) assessed as activation of liver phopholipase at 100 mg/kg, po administered QD for 30 days relative to control
[4] = test system: Rattus norvegicus; test: Antidyslipidemic activity in high fat diet fed Rattus norvegicus Charles Foster (rat) assessed as activation of cholesterol acyltransferase in plasma at 100 mg/kg, po administered QD for 30 days relative to control
[5] = test system: Rattus norvegicus; test: Antidyslipidemic activity in high fat diet fed Rattus norvegicus Charles Foster (rat) assessed as inhibition of cholesterol-induced phospholipid level in plasma at 100 mg/kg, po administered QD for 30 days relative to control; conditions: 720 h
[6] = Antioxidant activity assessed as inhibition of hydroxy radical generation at 100 ug/ml after 90 min by thiobarbuteric acid method
[7] = test system: Rattus norvegicus; test: Antidyslipidemic activity in Rattus norvegicus Charles Foster (rat) assessed as activation of post heparin lipolytic activity at 100 mg/kg, po after 18 hr relative to control
[8] = test system: Rattus norvegicus; test: Antidyslipidemic activity in Rattus norvegicus Charles Foster (rat) assessed as inhibition of triton WR1339-induced phospholipid in plasma at 100 mg/kg, po after 18 hr relative to control
[9] = test system: Rattus norvegicus; test: Antidyslipidemic activity in Rattus norvegicus Charles Foster (rat) assessed as inhibition of triton WR1339-induced triglyceride in plasma at 100 mg/kg, po after 18 hr relative to control
[10] = test system: Rattus norvegicus; test: Antidyslipidemic activity in Rattus norvegicus Charles Foster (rat) assessed as inhibition of triton WR1339-induced total cholesterol in plasma at 100 mg/kg, po after 18 hr relative to control; conditions: read-out: INH
[11] = Antioxidant activity assessed as inhibition of xanthine oxidase-mediated superoxide anion release at 100 ug/ml after 30 min relative to control

COCCO[C@@H]1C[C@H]2[C@@H]3CC=C4C[C@@H](O)CC[C@]4(C)[C@H]3CC[C@]2(C)[C@H]1[C@H](C)O [3BETA,20BETA-DIHYDROXY-16ALPHA-(2-METHOXY ETHOXY)-PREGN-5-EN]
inhibition [1]: -10%
Activity [2]: 17%

CC(=O)[C@@]1(O)[C@H](OCCO)C[C@H]2[C@@H]3CC=C4C[C@@H](O)CC[C@]4(C)[C@H]3CC[C@@]21C [3BETA,17ALPHA-DIHYDROXY-16ALPHA-(2-HYDROXY ETHOXY)PREGN-5-EN-20-ONE]
Activity [2]: 21%

COCCO[C@@H]1C[C@H]2[C@@H]3CC=C4C[C@@H](OC(C)=O)CC[C@]4(C)[C@H]3CC[C@]2(C)[C@H]1C(C)=O [3BETA-ACETOXY-16ALPHA-(2-METHOXY ETHOXY)-PREGN-5-EN-20-ONE]
Activity [2]: 18%

COCCO[C@@H]1C[C@H]2[C@@H]3CC=C4C[C@@H](O)CC[C@]4(C)[C@H]3CC[C@]2(C)[C@H]1C(C)=O [3BETA-HYDROXY-16ALPHAA-(2-METHOXYETHOXY)PREGN-5-EN-20-ONE]
Activity [2]: 18%

C[C@H](O)[C@H]1[C@H](OCCOCCO)C[C@H]2[C@@H]3CC=C4C[C@@H](O)CC[C@]4(C)[C@H]3CC[C@]12C [3BETA,20BETA-DIHYDROXY-16ALPHA-[2(2-HYDROXYETHOXY)-ETHOXY]-PREGN-5-EN]
Activity [2]: 17%

CC(=O)OCCOCCO[C@@H]1C[C@H]2[C@@H]3CC=C4C[C@@H](OC(C)=O)CC[C@]4(C)[C@H]3CC[C@]2(C)[C@H]1C(C)=O [3BETA-ACETOXY-16ALPHA-[2(2-ACETOXY ETHOXY)-ETHOXY]-PREGN-5-EN-20-ONE]
Activity [3]: 15%
Activity [4]: 20%
inhibition in vivo at 100 mg/kg [5]: -22%
Activity [2]: 23%

CC(=O)OC(C)CO[C@@H]1C[C@H]2[C@@H]3CC=C4C[C@@H](OC(C)=O)CC[C@]4(C)[C@H]3CC[C@]2(C)[C@H]1C(C)=O (stereo partly drawn) [3BETA-ACETOXY-16ALPHA-(2-ACETOXY PROPOXY)-PREGN-5-EN-20-ONE]
inhibition [6]: -9%
Activity [2]: 13%

Cc1ccc(C)c(OCCCC(C)(C)C(=O)O)c1 [GEMFIBROZIL]
Activity [3]: 33%
Activity [4]: 31%
inhibition in vivo at 100 mg/kg [5]: -31%
Activity [7]: 32%
inhibition in vivo at 100 mg/kg [8]: -34%
inhibition in vivo at 100 mg/kg [9]: 36%
inhibition in vivo at 100 mg/kg [10]: 36%

C/C(=N\OC(C)C)C1=CC[C@H]2[C@@H]3CC=C4C[C@@H](O)CC[C@]4(C)[C@H]3CC[C@]12C
inhibition [11]: -9%
Activity [2]: 23%

CC(=O)[C@H]1[C@H](c2cc(F)ccc2N)C[C@H]2[C@@H]3CC=C4C[C@@H](O)CC[C@]4(C)[C@H]3CC[C@@]21C [3BETA-HYDROXY-16ALPHA-(2-AMINO-5-FLUORO-PHENYL)-PREGN-5-EN-20-ONE]
Activity [3]: 27%
Activity [4]: 28%
inhibition in vivo at 100 mg/kg [5]: -21%
Activity [2]: 24%

CC(=O)[C@H]1[C@H](Nc2ccc(Cl)cc2)C[C@H]2[C@@H]3CC=C4C[C@@H](O)CC[C@]4(C)[C@H]3CC[C@@]21C [3BETA-HYDROXY-16ALPHA-(4-CHLORO PHENYLAMINO)-PREGN-5-EN-20-ONE]
inhibition [1]: -8%
Activity [3]: 18%
Activity [4]: 23%
inhibition in vivo at 100 mg/kg [5]: -25%
Activity [2]: 31%

CC(=O)[C@H]1[C@H](OCCOCCO)C[C@H]2[C@@H]3CC=C4C[C@@H](O)CC[C@]4(C)[C@H]3CC[C@@]21C [3BETA-HYDROXY-16ALPHA-[2(2-HYDROXY ETHOXY)-ETHOXY]PREGN-5-EN-20-ONE]
Activity [2]: 17%

CC(=O)[C@H]1[C@H](OCC(C)O)C[C@H]2[C@@H]3CC=C4C[C@@H](O)CC[C@]4(C)[C@H]3CC[C@@]21C (stereo partly drawn) [3BETA-HYDROXY-16ALPHA-(2-HYDROXY PROPOXY)PREGN-5-EN-20-ONE]
Activity [2]: 21%
